According to US10952992B2, “Methods of treating intraocular pressure with activators of Tie-2” (Aerpio Pharmaceuticals, Inc., priority 2015, dated 2021):
“And” between values parts separate entries of the source, which are not always exact repeats. Equal values may be shown once.

Test system: intraocular pressure in normotensive New Zealand White rabbits
Experiment: Example 3 intraocular pressure after repeated topical and subcutaneous administration (pneumotonometer)
Assay type: in vivo
Design: IOP, individual animal / IOP, group Average: unit not given here
Procedure: To measure the tolerability and effect of Compound 1 (sodium salt) on intraocular pressure following repeated topical and subcutaneous administration, normotensive New Zealand White rabbits were treated with Compound 1 (sodium salt). Animals were acclimated 1 to 2 times per day to the intraocular pressure (IOP) measurement procedures prior to initiation of the study to determine baseline IOP levels. IOP acclimation was performed in the two weeks prior to study start for a total of 5 days. Animals with unacceptable IOP values were excluded from the study. Prior to taking all IOP measurements, 1 to 2 drops of a 0.5% proparacaine solution were applied to the eye as a topical anesthetic. OP measurements were performed with a pneumotonometer. Test and control formulations were administered to the animals once or twice daily topically into both eyes or subcutaneously starting on Day 1 according to TABLE 20 and TABLE 21 below. PM dosing, where applicable, was performed ˜8 hours after AM dosing. IOP measurements were performed twice (AM and PM) at baseline (prior to the start of dosing), twice (AM and PM) on Days 1 and 7, and once daily (AM) on Days 2-6 and Day 8. Prior to taking all IOP measurements, 1 to 2 drops of a 0.5% proparacaine solution were applied to the eye as a topical anesthetic. IOP measurements were performed with a pneumotonometer. AM IOP measurements were performed 2 hours after AM dosing; the only exceptions were Day 8 AM measurements, which were performed 24 hours after the final dose. PM IOP measurements were performed ˜5 hours (baseline and Day 1) or ˜4 hours (Day 7) after AM IOP measurements, prior to PM dosing, with at least 15 minutes elapsing between anesthetic application for PM IOP measurements and PM dosing. The final round of slit-lamp examinations was performed on Day 8.

[1] = Group 2: 0.45 mg/eye topical sodium salt BID, Day 1, AM, OD
[2] = Group 2: 0.45 mg/eye topical sodium salt BID, Day 1, AM, OS
[3] = Group 2: 0.45 mg/eye topical sodium salt BID, Day 1, PM, OD
[4] = Group 2: 0.45 mg/eye topical sodium salt BID, Day 1, PM, OS
[5] = Group 2: 0.45 mg/eye topical sodium salt BID, Day 2, AM, OD
[6] = Group 2: 0.45 mg/eye topical sodium salt BID, Day 2, AM, OS
[7] = Group 2: 0.45 mg/eye topical sodium salt BID, Day 3, AM, OD
[8] = Group 2: 0.45 mg/eye topical sodium salt BID, Day 3, AM, OS
[9] = Group 2: 0.45 mg/eye topical sodium salt BID, Day 4, AM, OD
[10] = Group 2: 0.45 mg/eye topical sodium salt BID, Day 4, AM, OS
[11] = Group 2: 0.45 mg/eye topical sodium salt BID, Day 5, AM, OD
[12] = Group 2: 0.45 mg/eye topical sodium salt BID, Day 5, AM, OS
[13] = Group 3: 1.2 mg/eye topical sodium salt BID, Day 1, AM, OD
[14] = Group 3: 1.2 mg/eye topical sodium salt BID, Day 1, AM, OS
[15] = Group 3: 1.2 mg/eye topical sodium salt BID, Day 1, PM, OD
[16] = Group 3: 1.2 mg/eye topical sodium salt BID, Day 1, PM, OS
[17] = Group 3: 1.2 mg/eye topical sodium salt BID, Day 2, AM, OD
[18] = Group 3: 1.2 mg/eye topical sodium salt BID, Day 2, AM, OS
[19] = Group 3: 1.2 mg/eye topical sodium salt BID, Day 3, AM, OD
[20] = Group 3: 1.2 mg/eye topical sodium salt BID, Day 3, AM, OS
[21] = Group 3: 1.2 mg/eye topical sodium salt BID, Day 4, AM, OD
[22] = Group 3: 1.2 mg/eye topical sodium salt BID, Day 4, AM, OS
[23] = Group 3: 1.2 mg/eye topical sodium salt BID, Day 5, AM, OD
[24] = Group 3: 1.2 mg/eye topical sodium salt BID, Day 5, AM, OS

SMILES: COC(=O)N[C@@H](Cc1ccccc1)C(=O)N[C@@H](Cc1ccc(NS(=O)(=O)O)cc1)c1csc(-c2cccs2)n1 [Compound 1]
- IOP, group Average [1]: 22.1
- IOP, individual animal [1]: 20.3 and 23.7 and 24.0 and 20.7 and 21.7
- IOP, group Average [2]: 23.3
- IOP, individual animal [2]: 20.7 and 23.3 (2×) and 25.2 and 23.8
- IOP, group Average [3]: 25.5
- IOP, individual animal [3]: 24.8 (2×) and 29.5 and 22.0 and 26.2
- IOP, group Average [4]: 26.1
- IOP, individual animal [4]: 24.8 and 24.2 and 28.8 and 25.3 and 27.2
- IOP, group Average [5]: 21.9
- IOP, individual animal [5]: 22.0 and 22.7 and 25.0 and 18.3 and 21.7
- IOP, group Average [6]: 22.2
- IOP, individual animal [6]: 21.8 and 22.3 and 24.3 and 20.8 and 21.5
- IOP, group Average [7]: 24.0
- IOP, individual animal [7]: 25.0 and 24.2 and 26.0 and 20.8 and 23.8
- IOP, group Average [8]: 24.5
- IOP, individual animal [8]: 25.3 and 23.5 and 26.0 and 23.0 and 24.5
- IOP, group Average [9]: 23.9
- IOP, individual animal [9]: 23.8 and 22.0 and 26.7 and 21.3 and 25.7
- IOP, group Average [10]: 24.3
- IOP, individual animal [10]: 23.0 and 22.7 and 26.3 and 23.5 and 26.2
- IOP, group Average [11]: 25.2
- IOP, individual animal [11]: 28.8 and 22.8 and 28.0 and 20.7 and 25.7
- IOP, group Average [12]: 26.5
- IOP, individual animal [12]: 28.8 and 25.0 and 28.0 and 24.2 and 26.3
- IOP, group Average (Group 2: 0.45 mg/eye topical sodium salt BID, Day 6, AM, OD): 25.5
- IOP, group Average (Group 2: 0.45 mg/eye topical sodium salt BID, Day 6, AM, OS): 25.4
- IOP, group Average (Group 2: 0.45 mg/eye topical sodium salt BID, Day 7, AM, OD): 23.7
- IOP, group Average (Group 2: 0.45 mg/eye topical sodium salt BID, Day 7, AM, OS): 24.5
- IOP, group Average (Group 2: 0.45 mg/eye topical sodium salt BID, Day 7, PM, OD): 25.1
- IOP, group Average (Group 2: 0.45 mg/eye topical sodium salt BID, Day 7, PM, OS): 25.6
- IOP, group Average (Group 2: 0.45 mg/eye topical sodium salt BID, Day 8, AM (24 hours after final dose), OD): 24.9
- IOP, group Average (Group 2: 0.45 mg/eye topical sodium salt BID, Day 8, AM (24 hours after final dose), OS): 25.1
- IOP, group Average [13]: 22.0
- IOP, individual animal [13]: 23.2 and 20.7 and 24.0
- IOP, group Average [14]: 23.2
- IOP, individual animal [14]: 23.8 and 23.0 and 24.7
- IOP, group Average [15]: 24.1
- IOP, individual animal [15]: 23.8 and 22.7 and 24.7
- IOP, group Average [16]: 24.9
- IOP, individual animal [16]: 24.5 and 23.7 and 26.8
- IOP, group Average [17]: 20.8
- IOP, individual animal [17]: 17.5 and 18.5 and 24.3
- IOP, group Average [18]: 21.2
- IOP, individual animal [18]: 19.3 and 20.2 and 24.0
- IOP, group Average [19]: 20.7
- IOP, individual animal [19]: 19.2 and 20.0 and 23.0
- IOP, group Average [20]: 21.2
- IOP, individual animal [20]: 20.0 and 20.8 and 22.7
- IOP, group Average [21]: 22.8
- IOP, individual animal [21]: 23.2 and 19.8 and 23.8 and 24.8
- IOP, group Average [22]: 23.2
- IOP, individual animal [22]: 23.3 and 21.7 and 24.2 and 24.5
- IOP, group Average [23]: 21.5
- IOP, individual animal [23]: 21.5 and 18.8 and 22.3 and 21.2
- IOP, group Average [24]: 22.0
- IOP, individual animal [24]: 22.3 and 19.8 and 23.5 and 20.7
- IOP, group Average (Group 3: 1.2 mg/eye topical sodium salt BID, Day 6, AM, OD): 24.2
- IOP, group Average (Group 3: 1.2 mg/eye topical sodium salt BID, Day 6, AM, OS): 24.7
- IOP, group Average (Group 3: 1.2 mg/eye topical sodium salt BID, Day 7, AM, OD): 21.3
- IOP, group Average (Group 3: 1.2 mg/eye topical sodium salt BID, Day 7, AM, OS): 22.0
- IOP, group Average (Group 3: 1.2 mg/eye topical sodium salt BID, Day 7, PM, OD): 23.7
- IOP, group Average (Group 3: 1.2 mg/eye topical sodium salt BID, Day 7, PM, OS): 24.2
- IOP, group Average (Group 3: 1.2 mg/eye topical sodium salt BID, Day 8, AM (24 hours after final dose), OD): 23.4
- IOP, group Average (Group 3: 1.2 mg/eye topical sodium salt BID, Day 8, AM (24 hours after final dose), OS): 23.9
- IOP, group Average (Group 4: 1.2 mg/eye topical sodium salt QD, Day 1, AM, OD): 21.2
- IOP, group Average (Group 4: 1.2 mg/eye topical sodium salt QD, Day 1, AM, OS): 21.4
- IOP, group Average (Group 4: 1.2 mg/eye topical sodium salt QD, Day 1, PM, OD): 23.1
- IOP, group Average (Group 4: 1.2 mg/eye topical sodium salt QD, Day 1, PM, OS): 23.2
- IOP, group Average (Group 4: 1.2 mg/eye topical sodium salt QD, Day 2, AM, OD): 20.0
- IOP, group Average (Group 4: 1.2 mg/eye topical sodium salt QD, Day 2, AM, OS): 20.1
- IOP, group Average (Group 4: 1.2 mg/eye topical sodium salt QD, Day 3, AM, OD): 20.8
- IOP, group Average (Group 4: 1.2 mg/eye topical sodium salt QD, Day 3, AM, OS): 20.9
- IOP, group Average (Group 4: 1.2 mg/eye topical sodium salt QD, Day 4, AM, OD): 21.6
- IOP, group Average (Group 4: 1.2 mg/eye topical sodium salt QD, Day 4, AM, OS): 22.6
- IOP, group Average (Group 4: 1.2 mg/eye topical sodium salt QD, Day 5, AM, OD): 21.0
- IOP, group Average (Group 4: 1.2 mg/eye topical sodium salt QD, Day 5, AM, OS): 21.2
- IOP, group Average (Group 4: 1.2 mg/eye topical sodium salt QD, Day 6, AM, OD): 22.5
- IOP, group Average (Group 4: 1.2 mg/eye topical sodium salt QD, Day 6, AM, OS): 23.2
- IOP, group Average (Group 4: 1.2 mg/eye topical sodium salt QD, Day 7, AM, OD): 22.6
- IOP, group Average (Group 4: 1.2 mg/eye topical sodium salt QD, Day 7, AM, OS): 23.0
- IOP, group Average (Group 4: 1.2 mg/eye topical sodium salt QD, Day 7, PM, OD): 24.6
- IOP, group Average (Group 4: 1.2 mg/eye topical sodium salt QD, Day 7, PM, OS): 24.7
- IOP, group Average (Group 4: 1.2 mg/eye topical sodium salt QD, Day 8, AM (24 hours after final dose), OD): 22.7
- IOP, group Average (Group 4: 1.2 mg/eye topical sodium salt QD, Day 8, AM (24 hours after final dose), OS): 22.8
- IOP, group Average (Group 5: 10 mg/kg subcutaneous sodium salt BID, Day 1, AM, OD): 22.3
- IOP, group Average (Group 5: 10 mg/kg subcutaneous sodium salt BID, Day 1, AM, OS): 23.6
- IOP, group Average (Group 5: 10 mg/kg subcutaneous sodium salt BID, Day 1, PM, OD): 23.3
- IOP, group Average (Group 5: 10 mg/kg subcutaneous sodium salt BID, Day 1, PM, OS): 23.6
- IOP, group Average (Group 5: 10 mg/kg subcutaneous sodium salt BID, Day 2, AM, OD): 21.5
- IOP, group Average (Group 5: 10 mg/kg subcutaneous sodium salt BID, Day 2, AM, OS): 21.7
- IOP, group Average (Group 5: 10 mg/kg subcutaneous sodium salt BID, Day 3, AM, OD): 20.7
- IOP, group Average (Group 5: 10 mg/kg subcutaneous sodium salt BID, Day 3, AM, OS): 21.3
- IOP, group Average (Group 5: 10 mg/kg subcutaneous sodium salt BID, Day 4, AM, OD): 21.9
- IOP, group Average (Group 5: 10 mg/kg subcutaneous sodium salt BID, Day 4, AM, OS): 22.2
- IOP, group Average (Group 5: 10 mg/kg subcutaneous sodium salt BID, Day 5, AM, OD): 22.4
- IOP, group Average (Group 5: 10 mg/kg subcutaneous sodium salt BID, Day 5, AM, OS): 23.4
- IOP, group Average (Group 5: 10 mg/kg subcutaneous sodium salt BID, Day 6, AM, OD): 24.5
- IOP, group Average (Group 5: 10 mg/kg subcutaneous sodium salt BID, Day 6, AM, OS): 25.0
- IOP, group Average (Group 5: 10 mg/kg subcutaneous sodium salt BID, Day 7, AM, OD): 23.9
- IOP, group Average (Group 5: 10 mg/kg subcutaneous sodium salt BID, Day 7, AM, OS): 23.9
- IOP, group Average (Group 5: 10 mg/kg subcutaneous sodium salt BID, Day 7, PM, OD): 24.1
- IOP, group Average (Group 5: 10 mg/kg subcutaneous sodium salt BID, Day 7, PM, OS): 24.3
- IOP, group Average (Group 5: 10 mg/kg subcutaneous sodium salt BID, Day 8, AM (24 hours after final dose), OD): 24.5
- IOP, group Average (Group 5: 10 mg/kg subcutaneous sodium salt BID, Day 8, AM (24 hours after final dose), OS): 24.0
